We go through 17 molecules from patent publication US20070054899A1 (priority 2003, published 2007).

Data set [1] concerns the target T1, aromatase (microsomes from the human placenta) (Homo sapiens, UniProt P11511).
T1 construct: using microsomes from the human placenta as source of the enzyme; from tissue; host or cells: human placenta microsomes
T1 sequence (P11511 1-503): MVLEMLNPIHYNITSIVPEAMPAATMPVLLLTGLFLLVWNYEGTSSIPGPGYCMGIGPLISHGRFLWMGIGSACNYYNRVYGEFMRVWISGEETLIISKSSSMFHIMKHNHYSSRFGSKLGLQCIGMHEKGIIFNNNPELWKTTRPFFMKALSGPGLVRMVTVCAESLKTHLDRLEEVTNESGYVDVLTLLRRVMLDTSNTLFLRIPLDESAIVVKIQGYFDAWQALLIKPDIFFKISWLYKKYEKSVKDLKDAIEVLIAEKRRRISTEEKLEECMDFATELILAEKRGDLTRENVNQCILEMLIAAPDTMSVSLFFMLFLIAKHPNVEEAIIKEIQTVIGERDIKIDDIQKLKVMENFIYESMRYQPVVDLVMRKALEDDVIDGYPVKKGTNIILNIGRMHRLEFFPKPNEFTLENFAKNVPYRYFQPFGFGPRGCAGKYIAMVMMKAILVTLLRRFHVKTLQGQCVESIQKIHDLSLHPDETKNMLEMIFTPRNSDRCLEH
Description: Aromatase inhibition in vitro, tritiated water method, human placenta microsomes. The format is biochemical.

For a further data set, the target named is aromatase (e) (UniProt O46512). It is filed as biochemical. Conditions: value marked (e); read-out: Activity In vitro IC50(nM), (e).
For data set [2], the system named is uterine hypertrophy induced by androstenedione. Description: Activity in vivo: inhibition of uterine hypertrophy induced by androstenedione. Particulars: Rattus norvegicus, 96 h, immature female rats, androstenedione 30 mg/kg for 4 days, read-out: % inhibition to doses (μg/Kg); for inhibition in vivo at 0.01 mg/kg: dose 10 μg/Kg; for inhibition in vivo at 0.1 mg/kg: dose 100 μg/Kg; for inhibition in vivo at 1 mg/kg: dose 1000 μg/Kg; for inhibition in vivo at 0.001 mg/kg: dose 1 μg/Kg. The arrangement: species or system rat (Sprague-Dawley). As to the method:
The activity in vivo of aromatase inhibition by compounds of formula (I) according to the invention has been tested according to the model established by Bharnagar et al. (1990).
In general, immature female rats of the Sprague-Dawley line of a weight ranging from 40 to 50 g have been treated with a dose of androstenedione at 30 mg/kg for 4 days, in the absence or in the presence of doses of various compounds of formula (I).
Four hours after administration of an aromatase inhibitor, the rats were sacrificed. Their uteruses were removed, cleared of adhering fat and conjunctive tissue, next the uteruses were weighed (wet weight). The dry weight of the uteruses was determined the following day after a step of drying for one night at 80° C.

Setting [3] is: value marked (h), read-out: Activity In vitro IC50(nM), (h).
[4] abbreviates: value without (h)/(e) mark, read-out: Activity In vitro IC50.

Structures are written as SMILES. Read-outs that look alike come from different tables or passages of the source.

Sequence of aromatase (e) (O46512 whole entry): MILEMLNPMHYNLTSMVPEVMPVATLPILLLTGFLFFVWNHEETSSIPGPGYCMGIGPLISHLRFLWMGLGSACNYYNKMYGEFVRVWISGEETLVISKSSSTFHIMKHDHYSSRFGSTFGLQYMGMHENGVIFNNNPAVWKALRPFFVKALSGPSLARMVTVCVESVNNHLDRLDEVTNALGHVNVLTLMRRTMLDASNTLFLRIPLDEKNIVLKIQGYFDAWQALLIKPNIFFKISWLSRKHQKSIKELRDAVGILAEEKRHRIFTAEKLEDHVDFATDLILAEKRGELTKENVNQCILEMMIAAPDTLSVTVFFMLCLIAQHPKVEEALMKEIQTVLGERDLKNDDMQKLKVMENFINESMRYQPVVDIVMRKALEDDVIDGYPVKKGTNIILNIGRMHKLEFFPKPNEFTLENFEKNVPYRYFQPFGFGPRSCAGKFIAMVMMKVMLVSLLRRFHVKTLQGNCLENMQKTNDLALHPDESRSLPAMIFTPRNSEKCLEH

The IC50 is the midpoint of a concentration-inhibition curve. As to `Cn1c(=O)oc2cc(C(c3cccc(C#N)c3)n3ccnc3)ccc21` (stereo not shown) [PC122], the IC50 in data set [1] (setting [3]) was determined as 18.6 nM. On aromatase (e), the IC50 is 23.2 nM. In data set [2], the inhibition in vivo at 0.01 mg/kg is 39%, the inhibition in vivo at 0.1 mg/kg was 58% and the inhibition in vivo at 1 mg/kg is 92%.

The term melting point denotes the temperature of the solid-liquid transition. For `CCn1c(=O)[se]c2cc(C(c3ccc(C#N)cc3)n3cncn3)ccc21` (stereo not shown) [PC11303, 4-[(3-Ethyl-2-oxo-2,3-dihydro-1,3-benzoselenazol-6-yl)(1H-1,2,4-triazol-1-yl)methyl]benzonitrile], the melting point was 95 to 98 °C. Besides, the IC50 in data set [1] (setting [4]) was determined as 3.99 nM. Besides, in data set [2], the inhibition in vivo at 0.001 mg/kg stood at 38%, the inhibition in vivo at 0.01 mg/kg was 60% and the inhibition in vivo at 0.1 mg/kg turned out to be 71%.

Take `CN1C(=O)COc2cc(C(c3ccccc3)n3ccnc3)ccc21` (stereo not shown) [PCH19, 4-Methyl-7-[1H-imidazol-1-yl(phenyl)methyl]-1,4-benzoxazin-3(4H)-one]: the figures for the IC50 (in data set [1] (setting [3]); at aromatase (e)) were 52.5 nM and 59.9 nM, respectively.

As for `Cn1c(=O)oc2cc(C(c3ccc(C#N)cc3)n3ccnc3)ccc21` (stereo not shown) [PCH27], the IC50 worked out at 4.62 nM in data set [1] (setting [3]) and 72 nM at aromatase (e).

For the molecule `Cn1c(=O)oc2cc(C(c3ccncc3)n3ccnc3)ccc21` (stereo not shown) [PCH30], the results for the IC50 (in data set [1] (setting [3]); at aromatase (e)) were 38 nM and 477 nM, respectively.

For `Cn1c(=O)oc2ccc(C(c3ccccc3)n3ccnc3)cc21` (stereo not shown) [PCH31, 3-Methyl-5-[1H-imidazol-1-yl-(phenyl)methyl]-1,3-benzoxazol-2(3H)-one], the IC50 in data set [1] (setting [3]) amounted to 46.6 nM; at aromatase (e), 50.1 nM.

As to `O=c1[nH]c2ccc(C(c3ccccc3)n3ccnc3)cc2s1` (stereo not shown) [PCH100, 6-[1H-Imidazol-1-yl(phenyl)methyl]-1,3-benzothiazol-2(3H)-one], the IC50 amounted to 33.7 nM in data set [1] (setting [3]) and 34 nM on aromatase (e).

Take `N#Cc1ccc(C(c2ccc3[nH]c(=O)oc3c2)n2ccnc2)cc1` (stereo not shown) [PCH113, 6-[(4-Cyanophenyl)(1H-imidazol-1-yl)methyl]-1,3-benzoxazol-2(3H)-one]: the IC50 in data set [1] (setting [3]) is 13.2 nM. In addition, the IC50 on aromatase (e) came out at 14.6 nM. Also, in data set [2], the inhibition in vivo at 0.01 mg/kg stood at 19%, the inhibition in vivo at 0.1 mg/kg is 50% and the inhibition in vivo at 1 mg/kg came to 94%.

For the molecule `Cn1c(=O)oc2cc(C(c3cccnc3)n3ccnc3)ccc21` (stereo not shown) [PCH116], the IC50 in data set [1] (setting [3]) came out at 33.7 nM; at aromatase (e) it was 34.6 nM.

Consider `N#Cc1cccc(C(c2ccc3[nH]c(=O)oc3c2)n2ccnc2)c1` (stereo not shown) [PCH119], for which the IC50 in data set [1] (setting [3]) stood at 25.1 nM; on aromatase (e) it was 27.7 nM.

Turning to `O=c1[nH]c2cc(C(c3ccccc3)n3ccnc3)ccc2o1` (stereo not shown) [PCH124, 5-[1H-Imidazol-1-yl(phenyl)methyl]-1,3-benzoxazol-2(3H)-one], the IC50 in data set [1] (setting [3]) worked out at 14.9 nM. Further, the IC50 on aromatase (e) amounted to 14.1 nM. Besides, in data set [2], the inhibition in vivo at 0.01 mg/kg came to 34%, the inhibition in vivo at 0.1 mg/kg is 71% and the inhibition in vivo at 1 mg/kg was 92%.

The molecule `Cn1c(=O)sc2ccc(C(c3ccc(C#N)cc3)n3cncn3)cc21` (stereo not shown) [PCH163, 4-[(3-Methyl-2-oxo-2,3-dihydro-1,3-benzothiazol-5-yl)(1H-1,2,4-triazol-1-yl)methyl]benzonitrile] had a melting point of 122 to 125 °C. Besides, the half-maximal inhibitory concentration (IC50) in data set [1] (setting [4]) was 5.78 nM. Also, in data set [2], the inhibition in vivo at 0.001 mg/kg is 57%, the inhibition in vivo at 0.01 mg/kg turned out to be 83% and the inhibition in vivo at 0.1 mg/kg came to 95%.

As for `CCn1c(=O)sc2ccc(C(c3ccc(C#N)cc3)n3cncn3)cc21` (stereo not shown) [PCH246, 4-[(3-Ethyl-2-oxo-2,3-dihydro-1,3-benzothiazol-5-yl)(1H-1,2,4-triazol-1-yl)methyl]benzonitrile], the melting point was 125 to 127 °C. Also, in data set [1] (setting [4]), the concentration for half-maximal inhibition (IC50) was found to be 5.51 nM. In data set [2], the inhibition in vivo at 0.001 mg/kg came to 22%, the inhibition in vivo at 0.01 mg/kg is 45% and the inhibition in vivo at 0.1 mg/kg came out at 91%.

Regarding `Cn1c(=O)[se]c2cc(C(c3ccc(C#N)cc3)n3cncn3)ccc21` (stereo not shown) [PCH300, 4-[(3-Methyl-2-oxo-2,3-dihydro-1,3-benzoselenazol-6-yl)(1H-1,2,4-triazol-1-yl)methyl]benzonitrile], the melting point is 154 to 158 °C. For the same molecule, the IC50 in data set [1] (setting [4]) amounted to 4.64 nM. In data set [2], the inhibition in vivo at 0.001 mg/kg came out at 49%, the inhibition in vivo at 0.01 mg/kg was 86% and the inhibition in vivo at 0.1 mg/kg came to 91%.

As to `N#Cc1ccc(C(c2ccc3[nH]c(=O)[se]c3c2)n2cncn2)cc1` (stereo not shown) [PCH302, 4-[(2-oxo-2,3-dihydro-1,3-benzoselenazol-6-yl)(1H-1,2,4-triazol-1-yl)methyl]benzonitrile], the melting point fell in the range of 223 to 226 °C. In data set [1] (setting [4]), the half-inhibitory concentration (IC50) worked out at 6.53 nM. Besides, in data set [2], the inhibition in vivo at 0.001 mg/kg turned out to be 45%, the inhibition in vivo at 0.01 mg/kg came out at 20% and the inhibition in vivo at 0.1 mg/kg was determined as 63%.

Molecule `Cn1c(=O)[se]c2cc(C(c3ccc([N+](=O)[O-])cc3)n3cncn3)ccc21` (stereo not shown) [PCH304, 3-Methyl-6-[(4-nitrophenyl)(1H-1,2,4-triazol-1-yl)methyl]-1,3-benzoselenazol-2(3H)-one] returned a melting point of 190 to 195 °C. The IC50 in data set [1] (setting [4]) turned out to be 3.64 nM.

For the molecule `CCn1c(=O)[se]c2cc(C(c3ccc([N+](=O)[O-])cc3)n3cncn3)ccc21` (stereo not shown) [PCH305, 3-Ethyl-6-[(4-nitrophenyl)(1H-1,2,4-triazol-1-yl)methyl]-1,3-benzoselenazol-2(3H)-one], the melting point lay in the range of 79 to 82 °C. Besides, the IC50 in data set [1] (setting [4]) came out at 3.7 nM.
